Test results reported in patent US20240352036A1, “CRYSTALLINE FORMS OF RAS INHIBITORS, COMPOSITIONS CONTAINING THE SAME, AND METHODS OF USE THEREOF” (Revolution Medicines, Inc., priority 2023, published 2024).

Experiments:
Format in all cases: physicochemical
[1] = storage under ambient conditions followed by XRPD; settings: two weeks of storage under ambient conditions (room temperature)
[2] = variable humidity XRPD of crystalline Form 1; settings: 25° C., XRPD at each RH
Method: In another method, crystalline Form 1 was subjected to variable humidity XRPD experiments. In this experiment, two relative humidity (RH) cycles were applied at 25° C. XRPD analysis was carried out in each specific relative humidity. Cycle 1: 40% RH (initial)-40% RH (3 h)-60% RH (3 h)-80% RH (3 h)-95% RH (3 h)-80% RH (3 h)-60% RH (3 h)-40% RH (3 h)-20% RH (3 h) 0% RH (3 h); Cycle 2: 20% RH (3 h)-40% RH (3 h).

[3] = XRPD monitoring over time of pure Form 1 from a saturated diethyl ether slurry
Method: The formation of Form 2 is indicated by the presence of an intense peak at 4.8° 2θ (FIG. 2), which is absent in pure samples of Form 1 (FIG. 1 and FIG. 3). To study the formation of Form 2, a saturated slurry of Compound A was prepared in diethyl ether, which produced pure Form 1 at time=0 hr, and this pure sample was monitored over time using XRPD analysis. A shoulder peak at 4.8° 2θ was detected after approx. 2 hours and increased in intensity compared to the original Form 1 peaks after 4 and 17 days (FIG. 4).

**Q.** Which “solid form stability on storage (XRPD)” value [1] does the source give for CCn1c(-c2cccnc2[C@H](C)OC)c2c3cc(ccc31)N1CCO[C@@H](C[C@H](NC(=O)[C@H](C(C)C)N(C)C(=O)C3(F)CCN(C(=O)C#CC(C)(C)N(C)C)CC3)C(=O)N3CCC[C@H](N3)C(=O)OCC(C)(C)C2)C1 (atropisomer, axis not shown) [Form 4] here?
**A.** converted to a disordered material

**Q.** With CCn1c(-c2cccnc2[C@H](C)OC)c2c3cc(ccc31)N1CCO[C@@H](C[C@H](NC(=O)[C@H](C(C)C)N(C)C(=O)C3(F)CCN(C(=O)C#CC(C)(C)N(C)C)CC3)C(=O)N3CCC[C@H](N3)C(=O)OCC(C)(C)C2)C1 (atropisomer, axis not shown) [Form 2] as the compound, how does the “solid form conversion at relative humidity lower than 80%” value ([2]; two RH cycles, RH lower than 80%) read?
**A.** converted back to Form 1

**Q.** Which “time until the Form 2 shoulder peak at 4.8° 2θ was detected” value ([3]; pure Form 1 at time=0 hr from saturated diethyl ether slurry, peak increased in intensity after 4 and 17 days) does the source give for CCn1c(-c2cccnc2[C@H](C)OC)c2c3cc(ccc31)N1CCO[C@@H](C[C@H](NC(=O)[C@H](C(C)C)N(C)C(=O)C3(F)CCN(C(=O)C#CC(C)(C)N(C)C)CC3)C(=O)N3CCC[C@H](N3)C(=O)OCC(C)(C)C2)C1 (atropisomer, axis not shown) [Form 1] here?
**A.** approx. 2 hours

**Q.** And the “solid form stability over time (XRPD)” value ([3]; pure Form 1 monitored up to 17 days)?
**A.** may produce a mixture of Forms 1 and 2 over time

**Q.** What about the “solid form conversion at relative humidity higher than 80% RH” value ([2]; two RH cycles 0-95% RH, 3 h per step, RH higher than 80%) of the same compound?
**A.** converted or partially converted to Form 2
